Reference: ChEMBL document CHEMBL1201862, “PubChem BioAssay data set” (2004)
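Results reflect a 48-hour exposure of cells in 96-well plates to compound at five concentrations. GI50 is the concentration that inhibits growth by half.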 Active and inactive are the calls of the source. Cut-off read from the data, not from the text of the source: active = GI50 up to about 1.1 µM and inactive = higher.

Key:
Test in all cases: NCI anticancer screen, dose series, 48 h
BT-549 = tested on: BT-549
CCRF-CEM = tested on: CCRF-CEM
COLO 205 = tested on: COLO 205
HL-60 = tested on: HL-60
HOP-92 = tested on: HOP-92
HT-29 = tested on: HT-29
Hs-578T = tested on: Hs-578T
IGROV-1 = tested on: IGROV-1
LOX IMVI = tested on: LOX IMVI
M14 = tested on: M14
MCF7 = tested on: MCF7
NCI-H460 = tested on: NCI-H460
OVCAR-3 = tested on: OVCAR-3
OVCAR-5 = tested on: OVCAR-5
SF-268 = tested on: SF-268
SF-539 = tested on: SF-539
SK-MEL-2 = tested on: SK-MEL-2
T47D = tested on: T47D
UACC-257 = tested on: UACC-257

| Structure (SMILES) | GI50 (BT-549) | GI50 (CCRF-CEM) | GI50 (COLO 205) | GI50 (HL-60) | GI50 (HOP-92) | GI50 (HT-29) | GI50 (Hs-578T) | GI50 (IGROV-1) | GI50 (LOX IMVI) | GI50 (M14) | GI50 (MCF7) | GI50 (NCI-H460) | GI50 (OVCAR-3) | GI50 (OVCAR-5) | GI50 (SF-268) | GI50 (SF-539) | GI50 (SK-MEL-2) | GI50 (T47D) | GI50 (UACC-257) |
| --- | --- | --- | --- | --- | --- | --- | --- | --- | --- | --- | --- | --- | --- | --- | --- | --- | --- | --- | --- |
| COc1cc(C2C3=C(COC3=O)Oc3cc4c(cc32)OCO4)ccc1O (stereo not drawn) | 1.1 µM (active) | 0.352 µM (active) | 0.225 µM (active) | 0.182 µM (active) | 3.59 µM (inactive) | 0.359 µM (active) | 0.329 µM (active) | 0.509 µM (active) | 0.601 µM (active) | 0.439 µM (active) | 0.277 µM (active) | 0.308 µM (active) | 0.189 µM (active) | 3.78 µM (inactive) | 2.07 µM (inactive) | 0.281 µM (active) | 0.543 µM (active) | 0.49 µM (active) | – |
| CCOC(=O)C1(Cc2ccc3c(c2)CCC3)Cc2cc3c(cc2C1)CCC3 | 90.4 µM (inactive) | 13.9 µM (inactive) | 33.9 µM (inactive) | > 100 µM (inactive) | – | 6.46 µM (inactive) | 34.8 µM (inactive) | 46.8 µM (inactive) | 15.4 µM (inactive) | 21.5 µM (inactive) | 16.4 µM (inactive) | 27.5 µM (inactive) | 32.4 µM (inactive) | 45.6 µM (inactive) | 53.2 µM (inactive) | 29.7 µM (inactive) | 32.6 µM (inactive) | 17.7 µM (inactive) | 23.7 µM (inactive) |
| Cc1c(C)c2c(c(N)c1C#N)C(=O)N(NC(=S)Nc1ccccc1)C2=O | > 100 µM (inactive) | 62.5 µM (inactive) | 79.4 µM (inactive) | 86.9 µM (inactive) | > 100 µM (inactive) | 60.1 µM (inactive) | 42.1 µM (inactive) | 56.5 µM (inactive) | – | > 100 µM (inactive) | > 100 µM (inactive) | 61.2 µM (inactive) | > 100 µM (inactive) | > 100 µM (inactive) | 31.4 µM (inactive) | 49.8 µM (inactive) | > 100 µM (inactive) | > 100 µM (inactive) | > 100 µM (inactive) |
| CC(=O)Nc1ccc2c3c(cc(O)c2c1)N(C(=O)CCCCCC(=O)N1CC(CCl)c2c1cc(O)c1cc(NC(C)=O)ccc21)CC3CCl (stereo not drawn) | 0.0134 µM (active) | – | 0.016 µM (active) | 0.115 µM (active) | < 0.01 µM (active) | 0.0321 µM (active) | 0.0362 µM (active) | 0.0292 µM (active) | < 0.01 µM (active) | < 0.01 µM (active) | < 0.01 µM (active) | < 0.01 µM (active) | 0.0172 µM (active) | 0.101 µM (active) | < 0.01 µM (active) | 0.012 µM (active) | 0.0147 µM (active) | < 0.01 µM (active) | 0.0168 µM (active) |
| COc1ccc(-c2nc(O)c3ccccc3n2)cc1 | 83.9 µM (inactive) | > 100 µM (inactive) | > 100 µM (inactive) | > 100 µM (inactive) | > 100 µM (inactive) | > 100 µM (inactive) | 2.44 µM (inactive) | 29.1 µM (inactive) | 39.8 µM (inactive) | > 100 µM (inactive) | 35.9 µM (inactive) | – | > 100 µM (inactive) | > 100 µM (inactive) | > 100 µM (inactive) | 45.9 µM (inactive) | > 100 µM (inactive) | 84.5 µM (inactive) | > 100 µM (inactive) |
| CCN(CCO)CC1COc2ccccc2O1 (stereo not drawn) | > 100 µM (inactive) | > 100 µM (inactive) | > 100 µM (inactive) | > 100 µM (inactive) | > 100 µM (inactive) | > 100 µM (inactive) | > 100 µM (inactive) | > 100 µM (inactive) | > 100 µM (inactive) | > 100 µM (inactive) | > 100 µM (inactive) | > 100 µM (inactive) | > 100 µM (inactive) | > 100 µM (inactive) | > 100 µM (inactive) | > 100 µM (inactive) | – | > 100 µM (inactive) | > 100 µM (inactive) |
| CC1OC(OC2C(O[C@H]3CC[C@@]4(C)C(=CC[C@H]5[C@@H]6C[C@@H]7O[C@]8(CC[C@@H](CO)CO8)[C@@H](C)[C@@H]7[C@@]6(C)CC[C@@H]54)C3)OC(CO)C(O)C2OC2OC(CO)C(O)C(O)C2O)C(O)C(O)C1O (stereo partly drawn) | > 10 µM (inactive) | – | 1.88 µM (inactive) | 1.44 µM (inactive) | 1.76 µM (inactive) | 2.1 µM (inactive) | 2.91 µM (inactive) | 1.95 µM (inactive) | 1.85 µM (inactive) | 2.04 µM (inactive) | 1.77 µM (inactive) | 1.78 µM (inactive) | – | 2.22 µM (inactive) | 1.85 µM (inactive) | 1.6 µM (inactive) | 2.03 µM (inactive) | 1.87 µM (inactive) | 1.77 µM (inactive) |
| OCCCNCc1ccncc1 | > 100 µM (inactive) | > 100 µM (inactive) | > 100 µM (inactive) | > 100 µM (inactive) | > 100 µM (inactive) | > 100 µM (inactive) | > 100 µM (inactive) | > 100 µM (inactive) | > 100 µM (inactive) | > 100 µM (inactive) | > 100 µM (inactive) | > 100 µM (inactive) | > 100 µM (inactive) | > 100 µM (inactive) | > 100 µM (inactive) | > 100 µM (inactive) | > 100 µM (inactive) | > 100 µM (inactive) | – |
| NC12c3c4cccc3Oc3cccc(c31)Oc1cccc(c12)O4 | > 50 µM (inactive) | > 50 µM (inactive) | > 50 µM (inactive) | 18.2 µM (inactive) | > 50 µM (inactive) | > 50 µM (inactive) | 31.3 µM (inactive) | > 50 µM (inactive) | – | > 50 µM (inactive) | > 50 µM (inactive) | > 50 µM (inactive) | > 50 µM (inactive) | > 50 µM (inactive) | > 50 µM (inactive) | > 50 µM (inactive) | > 50 µM (inactive) | > 50 µM (inactive) | > 50 µM (inactive) |
| CC(C)(C)c1ccc(O)c(CN(Cc2cc(C(C)(C)C)ccc2O)c2ccccc2)c1 | 21 µM (inactive) | 32.4 µM (inactive) | 17.1 µM (inactive) | – | 16.2 µM (inactive) | 18.3 µM (inactive) | 18.6 µM (inactive) | 21.1 µM (inactive) | 13.7 µM (inactive) | 14.4 µM (inactive) | 18.8 µM (inactive) | 16.5 µM (inactive) | 15.6 µM (inactive) | 16.1 µM (inactive) | 17.6 µM (inactive) | 17.6 µM (inactive) | 17.6 µM (inactive) | 15.8 µM (inactive) | 2.48 µM (inactive) |
| CCCC(=O)N1CCN(c2ccc3c(c2)OC(C)O3)CC1 (stereo not drawn) | > 100 µM (inactive) | > 100 µM (inactive) | > 100 µM (inactive) | – | > 100 µM (inactive) | > 100 µM (inactive) | > 100 µM (inactive) | > 100 µM (inactive) | – | > 100 µM (inactive) | > 100 µM (inactive) | > 100 µM (inactive) | > 100 µM (inactive) | > 100 µM (inactive) | > 100 µM (inactive) | > 100 µM (inactive) | – | > 100 µM (inactive) | > 100 µM (inactive) |
| O=C(N/N=C\c1ccc([N+](=O)[O-])s1)c1ccncc1 | 11.3 µM (inactive) | 6.52 µM (inactive) | 2.13 µM (inactive) | 2.38 µM (inactive) | 15.6 µM (inactive) | 4.13 µM (inactive) | 15.8 µM (inactive) | 10.3 µM (inactive) | – | 11.6 µM (inactive) | 3.02 µM (inactive) | 6.65 µM (inactive) | 2.82 µM (inactive) | 29.9 µM (inactive) | 13.6 µM (inactive) | 6.28 µM (inactive) | 18.2 µM (inactive) | 21.2 µM (inactive) | 14.6 µM (inactive) |
| Cc1ccc(C[N+](C)(C)N)cc1C | > 10 µM (inactive) | > 10 µM (inactive) | > 10 µM (inactive) | > 10 µM (inactive) | > 10 µM (inactive) | > 10 µM (inactive) | > 10 µM (inactive) | > 10 µM (inactive) | > 10 µM (inactive) | > 10 µM (inactive) | > 10 µM (inactive) | > 10 µM (inactive) | > 10 µM (inactive) | > 10 µM (inactive) | > 10 µM (inactive) | > 10 µM (inactive) | – | > 10 µM (inactive) | > 10 µM (inactive) |
| Cc1ccc(SCN2CCCCC2)cc1.O=C(Cl)c1ccc([N+](=O)[O-])cc1 | 1.9 µM (inactive) | 2.03 µM (inactive) | 4.86 µM (inactive) | 1.67 µM (inactive) | 9.18 µM (inactive) | 13.2 µM (inactive) | 10.4 µM (inactive) | 3.3 µM (inactive) | 2.97 µM (inactive) | 17.8 µM (inactive) | 6.55 µM (inactive) | – | 12.9 µM (inactive) | 10.7 µM (inactive) | 5.98 µM (inactive) | – | 14.7 µM (inactive) | 12.2 µM (inactive) | 14.6 µM (inactive) |
| O=S(=O)(NC1OCCCC1I)c1ccccc1 (stereo not drawn) | > 100 µM (inactive) | 68.4 µM (inactive) | > 100 µM (inactive) | – | > 100 µM (inactive) | > 100 µM (inactive) | > 100 µM (inactive) | 44.5 µM (inactive) | 84.9 µM (inactive) | – | > 100 µM (inactive) | > 100 µM (inactive) | > 100 µM (inactive) | > 100 µM (inactive) | > 100 µM (inactive) | > 100 µM (inactive) | > 100 µM (inactive) | > 100 µM (inactive) | > 100 µM (inactive) |
| CCOC(=O)Oc1ccc2c(c1)c(=O)c1c(NCCN(CC)CC)ccc3nnn2c31 | 10.5 µM (inactive) | 0.172 µM (active) | 1.01 µM (active) | – | 4.22 µM (inactive) | 1.29 µM (inactive) | 5.11 µM (inactive) | 0.519 µM (active) | 1.18 µM (inactive) | 5.2 µM (inactive) | 0.392 µM (active) | < 0.0209 µM (active) | 4.46 µM (inactive) | 10.6 µM (inactive) | 1.43 µM (inactive) | 0.748 µM (active) | 13.2 µM (inactive) | 14.8 µM (inactive) | 7.35 µM (inactive) |
